Experimental data as given in patent publication US12540161B2, “Linkers” (BicycleTx Limited, priority 2020, dated 2026).

How the values were obtained:
Cathepsin B = Cathepsin B (Homo sapiens, UniProt P07858); test: Cathepsin B (CatB) cleavage assay; assay type: biochemical; conditions: for % Parent remaining after incubation with CatB, T = 1 h / % Parent remaining after incubation with CatB, T = 4 h / % Parent remaining after incubation with CatB, T = 24 h: norfloxacin linker compounds; for % Parent remaining after incubation with CatB, 0 h / % Parent remaining after incubation with CatB, 1 h / % Parent remaining after incubation with CatB, 2 h / % Parent remaining after incubation with CatB, 4 h / % Parent remaining after incubation with CatB, 6 h / % Parent remaining after incubation with CatB, 24 h / half-life at 40 μM: BTCs; for half-life at 40 μM: read-out: CatB t1/2 (converted)
Description: 15 μL of test compound solution (2 mM in DMSO) was added to the incubation plate in duplicate. 30 μL of Cathepsin B stock solution (16 μM) was pre-activated with 1500 μL activation buffer for 10 min at room temperature. The Cathepsin B solution was diluted in 13.17 mL water, then 735 μL activatived enzyme mixture was added to the incubation plate. The mixture was incubated at 37° C. in a waterbath. […] The samples were mixed and centrifuged at 4000 rpm for 20 min. 50 μL of supernatant was taken into a new plate containing 150 μL ultra-pure water and the samples mixed thoroughly before submitting to LC-MS/MS analysis.

in vitro = conditions: for fold increase in half-life vs Cit-Val: 2 μM; for half-life at 2 μM: plasma
Description: Pooled frozen plasma was thawed in a water bath at 37° C. Plasma was centrifuged at 4000 rpm for 5 min and the clots were removed if any. The pH will be adjusted to 7.4±0.1 if required. 1 mM stock solution was prepared with DMSO. Propantheline (positive control) was prepared by making a 100 μM working solution by diluting 5 μL of the stock solution (10 mM) with 495 μL ultra pure water. 100 μM working solutions of test compounds were made up by diluting 10 μL of the stock solution (1 mM) with 90 μL DMSO. 98 μL of blank plasma was spiked with 2 μL of dosing solution (100 μM) to achieve 2 μM of the final concentration in duplicate and samples were incubated at 37° C. in a water bath. […] An aliquot of supernatant (150 μL) was transferred from each well before submitting for LC-MS/MS analysis.
The % remaining test compound after incubation in plasma was calculated using following equation: Remaining=100×(PAR at appointed incubation time/PAR at T0 time)
where PAR is the peak area ratio of analyte versus internal standard (IS).
The half-life (T½) was calculated from a log linear plot of concentration versus time.

[1] = pH 7.4, Mouse plasma t1/2 (EDTA), BTCs, EDTA anticoagulant

## CCn1cc(C(=O)O)c(=O)c2cc(F)c(N3CCN(C(=O)OCc4ccc(NC(=O)[C@H](CCCNC(N)=O)NC(=O)[C@@H](NC(=O)CCCC(=O)N(C)C)C(C)C)cc4)CC3)cc21 [BCY9422, reference compound]
Cathepsin B
  % Parent remaining after incubation with CatB, T = 1 h: 3%
  % Parent remaining after incubation with CatB, T = 4 h: 0%
  % Parent remaining after incubation with CatB, T = 24 h: 0%
In vitro; mouse, pH 7.4
  fold increase in half-life vs Cit-Val: 1.0 fold
  half-life at 2 μM: 0.4 h

## CCn1cc(C(=O)O)c(=O)c2cc(F)c(N3CCN(C(=O)OCc4ccc(NC(=O)[C@H](CCNC(=N)N)NC(=O)[C@@H](NC(=O)CCCC(=O)N(C)C)C(C)C)cc4)CC3)cc21 [BCY9423]
Cathepsin B
  % Parent remaining after incubation with CatB, T = 1 h: 0.6%
  % Parent remaining after incubation with CatB, T = 4 h: 0%
  % Parent remaining after incubation with CatB, T = 24 h: 0%
In vitro; mouse, pH 7.4
  fold increase in half-life vs Cit-Val: 6.0 fold
  half-life at 2 μM: 2.4 h

## CCn1cc(C(=O)O)c(=O)c2cc(F)c(N3CCN(C(=O)OCc4ccc(NC(=O)[C@H](CCN)NC(=O)[C@@H](NC(=O)CCCC(=O)N(C)C)C(C)C)cc4)CC3)cc21 [BCY9474]
Cathepsin B
  % Parent remaining after incubation with CatB, T = 1 h: 0.3%
  % Parent remaining after incubation with CatB, T = 4 h: 0%
  % Parent remaining after incubation with CatB, T = 24 h: 0%
In vitro; mouse, pH 7.4
  fold increase in half-life vs Cit-Val: 10.8 fold
  half-life at 2 μM: 4.3 h

## CCn1cc(C(=O)O)c(=O)c2cc(F)c(N3CCN(C(=O)OCc4ccc(NC(=O)[C@H](CCNC(=N)NC)NC(=O)[C@@H](NC(=O)CCCC(=O)N(C)C)C(C)C)cc4)CC3)cc21 [BCY9477]
Cathepsin B
  % Parent remaining after incubation with CatB, T = 1 h: 0%
  % Parent remaining after incubation with CatB, T = 4 h: 0%
  % Parent remaining after incubation with CatB, T = 24 h: 0%
In vitro; mouse, pH 7.4
  fold increase in half-life vs Cit-Val: 6.3 fold
  half-life at 2 μM: 2.5 h

## CCn1cc(C(=O)O)c(=O)c2cc(F)c(N3CCN(C(=O)OCc4ccc(NC(=O)[C@H](CCNC(=N)N)NC(=O)[C@@H](NC(=O)[C@H](CCC(=O)O)NC(=O)CCCC(=O)N(C)C)C(C)C)cc4)CC3)cc21 [BCY9695]
Cathepsin B
  % Parent remaining after incubation with CatB, T = 1 h: 0%
  % Parent remaining after incubation with CatB, T = 4 h: 0%
  % Parent remaining after incubation with CatB, T = 24 h: 0%
In vitro; mouse, pH 7.4
  fold increase in half-life vs Cit-Val: 34.1 fold
  half-life at 2 μM: 14.3 h

## CCn1cc(C(=O)O)c(=O)c2cc(F)c(N3CCN(C(=O)OCc4ccc(NC(=O)[C@H](CCCNC(N)=O)NC(=O)[C@@H](NC(=O)[C@H](CCC(=O)O)NC(=O)CCCC(=O)N(C)C)C(C)C)cc4)CC3)cc21 [BCY9696]
Cathepsin B
  % Parent remaining after incubation with CatB, T = 1 h: 0%
  % Parent remaining after incubation with CatB, T = 4 h: 0%
  % Parent remaining after incubation with CatB, T = 24 h: 0%
In vitro; mouse, pH 7.4
  fold increase in half-life vs Cit-Val: 25.1 fold
  half-life at 2 μM: 10.8 h

## CCn1cc(C(=O)O)c(=O)c2cc(F)c(N3CCN(C(=O)OCc4ccc(NC(=O)[C@H](CCN)NC(=O)[C@@H](NC(=O)[C@H](CCC(=O)O)NC(=O)CCCC(=O)N(C)C)C(C)C)cc4)CC3)cc21 [BCY10122]
Cathepsin B
  % Parent remaining after incubation with CatB, T = 1 h: 0%
  % Parent remaining after incubation with CatB, T = 4 h: 0%
  % Parent remaining after incubation with CatB, T = 24 h: 0%
In vitro; mouse, pH 7.4
  fold increase in half-life vs Cit-Val: 107.5 fold
  half-life at 2 μM: 39 h

## CCn1cc(C(=O)O)c(=O)c2cc(F)c(N3CCN(C(=O)OCc4ccc(NC(=O)[C@H](CN)NC(=O)[C@@H](NC(=O)[C@H](CCC(=O)O)NC(=O)CCCC(=O)N(C)C)C(C)C)cc4)CC3)cc21 [BCY10297]
Cathepsin B
  % Parent remaining after incubation with CatB, T = 1 h: 75%
  % Parent remaining after incubation with CatB, T = 4 h: 15%
  % Parent remaining after incubation with CatB, T = 24 h: 0%
In vitro; mouse, pH 7.4
  fold increase in half-life vs Cit-Val: 19.3 fold
  half-life at 2 μM: 15.5 h

## CCn1cc(C(=O)O)c(=O)c2cc(F)c(N3CCN(C(=O)OCc4ccc(NC(=O)[C@H](CN)NC(=O)[C@@H](NC(=O)CCCC(=O)N(C)C)C(C)C)cc4)CC3)cc21 [BCY10298]
Cathepsin B
  % Parent remaining after incubation with CatB, T = 1 h: 92%
  % Parent remaining after incubation with CatB, T = 4 h: 63%
  % Parent remaining after incubation with CatB, T = 24 h: 6%
In vitro; mouse, pH 7.4
  fold increase in half-life vs Cit-Val: 6.5 fold
  half-life at 2 μM: 2.6 h

## CCn1cc(C(=O)O)c(=O)c2cc(F)c(N3CCN(C(=O)OCc4ccc(NC(=O)[C@H](CNC(=N)N)NC(=O)[C@@H](NC(=O)CCCC(=O)N(C)C)C(C)C)cc4)CC3)cc21 [BCY10300]
Cathepsin B
  % Parent remaining after incubation with CatB, T = 1 h: 72%
  % Parent remaining after incubation with CatB, T = 4 h: 10%
  % Parent remaining after incubation with CatB, T = 24 h: 0%
In vitro; mouse, pH 7.4
  fold increase in half-life vs Cit-Val: 3.4 fold
  half-life at 2 μM: 1.4 h

## CC[C@H](C)[C@@H]([C@@H](CC(=O)N1CCC[C@H]1[C@H](OC)[C@@H](C)C(=O)N[C@H](C)[C@@H](O)c1ccccc1)OC)N(C)C(=O)[C@@H](NC(=O)[C@H](C(C)C)N(C)C(=O)OCc1ccc(NC(=O)[C@H](CN)NC(=O)[C@@H](NC(=O)[C@H](CCC(=O)O)NC(=O)Cn2cc(CCC(=O)NCCC(=O)N(C)CC(=O)N(C)CC(=O)N(C)CC(=O)N(C)CC(=O)N(C)CC(=O)N(C)CC(=O)N(C)CC(=O)N(C)CC(=O)N(C)CC(=O)N(C)CC(=O)N[C@@H](C)C(=O)N[C@H]3CN(C)Cc4cc5cc(c4)CN(C)C[C@@H](C(N)=O)NC(=O)[C@H](C(C)(C)C)NC(=O)[C@H](CC(=O)O)NC(=O)[C@H](Cc4ccc(O)cc4)NC(=O)[C@H](Cc4ccccc4)NC(=O)[C@H](CC(=O)O)NC(=O)[C@H](CCC(=O)O)NC(=O)[C@H](CSC5)NC(=O)[C@@H](C)NC(=O)[C@H](Cc4cccc5ccccc45)NC(=O)[C@H](CCC(=O)O)NC(=O)[C@H](CC(N)=O)NC(=O)[C@@H](C)NC3=O)nn2)C(C)C)cc1)C(C)C [BCY10982, MMAE-PAB-(Dap-Val-Glu)-BCY3900]
Cathepsin B
  % Parent remaining after incubation with CatB, 0 h: 100%
  % Parent remaining after incubation with CatB, 1 h: 85.435%
  % Parent remaining after incubation with CatB, 2 h: 82.3%
  % Parent remaining after incubation with CatB, 4 h: 73.1%
  % Parent remaining after incubation with CatB, 6 h: 72.3%
  % Parent remaining after incubation with CatB, 24 h: 73.91%
  half-life at 40 μM: > 57.8 h
In vitro; [1]
  half-life at 2 μM: 55.9 h

## CC[C@H](C)[C@@H]([C@@H](CC(=O)N1CCC[C@H]1[C@H](OC)[C@@H](C)C(=O)N[C@H](C)[C@@H](O)c1ccccc1)OC)N(C)C(=O)[C@@H](NC(=O)[C@H](C(C)C)N(C)C(=O)OCc1ccc(NC(=O)[C@H](CCN)NC(=O)[C@@H](NC(=O)[C@H](CCC(=O)O)NC(=O)Cn2cc(CCC(=O)NCCC(=O)N(C)CC(=O)N(C)CC(=O)N(C)CC(=O)N(C)CC(=O)N(C)CC(=O)N(C)CC(=O)N(C)CC(=O)N(C)CC(=O)N(C)CC(=O)N(C)CC(=O)N[C@@H](C)C(=O)N[C@H]3CN(C)Cc4cc5cc(c4)CN(C)C[C@@H](C(N)=O)NC(=O)[C@H](C(C)(C)C)NC(=O)[C@H](CC(=O)O)NC(=O)[C@H](Cc4ccc(O)cc4)NC(=O)[C@H](Cc4ccccc4)NC(=O)[C@H](CC(=O)O)NC(=O)[C@H](CCC(=O)O)NC(=O)[C@H](CSC5)NC(=O)[C@@H](C)NC(=O)[C@H](Cc4cccc5ccccc45)NC(=O)[C@H](CCC(=O)O)NC(=O)[C@H](CC(N)=O)NC(=O)[C@@H](C)NC3=O)nn2)C(c2ccccc2)c2ccccc2)cc1)C(C)C [BCY10987, MMAE-PAB-(Dab-Dpa-Glu)-BCY3900]
Cathepsin B
  % Parent remaining after incubation with CatB, 0 h: 100%
  % Parent remaining after incubation with CatB, 1 h: 104.27%
  % Parent remaining after incubation with CatB, 2 h: 90.6%
  % Parent remaining after incubation with CatB, 4 h: 90.2%
  % Parent remaining after incubation with CatB, 6 h: 94%
  % Parent remaining after incubation with CatB, 24 h: 91.48%
  half-life at 40 μM: > 57.8 h
In vitro; [1]
  half-life at 2 μM: > 57.8 h

## CC[C@H](C)[C@@H]([C@@H](CC(=O)N1CCC[C@H]1[C@H](OC)[C@@H](C)C(=O)N[C@H](C)[C@@H](O)c1ccccc1)OC)N(C)C(=O)[C@@H](NC(=O)[C@H](C(C)C)N(C)C(=O)OCc1ccc(NC(=O)[C@H](CCN)NC(=O)C2(NC(=O)[C@H](CCC(=O)O)NC(=O)Cn3cc(CCC(=O)NCCC(=O)N(C)CC(=O)N(C)CC(=O)N(C)CC(=O)N(C)CC(=O)N(C)CC(=O)N(C)CC(=O)N(C)CC(=O)N(C)CC(=O)N(C)CC(=O)N(C)CC(=O)N[C@@H](C)C(=O)N[C@H]4CN(C)Cc5cc6cc(c5)CN(C)C[C@@H](C(N)=O)NC(=O)[C@H](C(C)(C)C)NC(=O)[C@H](CC(=O)O)NC(=O)[C@H](Cc5ccc(O)cc5)NC(=O)[C@H](Cc5ccccc5)NC(=O)[C@H](CC(=O)O)NC(=O)[C@H](CCC(=O)O)NC(=O)[C@H](CSC6)NC(=O)[C@@H](C)NC(=O)[C@H](Cc5cccc6ccccc56)NC(=O)[C@H](CCC(=O)O)NC(=O)[C@H](CC(N)=O)NC(=O)[C@@H](C)NC4=O)nn3)CCC2)cc1)C(C)C [BCY10988, MMAE-PAB-(Dab-cBu-Glu)-BCY3900]
Cathepsin B
  % Parent remaining after incubation with CatB, 0 h: 100%
  % Parent remaining after incubation with CatB, 1 h: 109.88%
  % Parent remaining after incubation with CatB, 2 h: 119%
  % Parent remaining after incubation with CatB, 4 h: 110%
  % Parent remaining after incubation with CatB, 6 h: 105%
  % Parent remaining after incubation with CatB, 24 h: 111%
  half-life at 40 μM: > 57.8 h
In vitro; [1]
  half-life at 2 μM: > 57.8 h
